Reference: the supplement of paper PMC8988213
Where a name gives a salt, the structure may show the parent alone.

Tests used:
[1] = tested on: ID188 patient-derived PDAC 2D line (pre-FOLFIRINOX); assay: normalised area under dose-response curve (viability relative to DMSO, 7 doses up to 10 µM) (fraction (AUC)); higher = less sensitive (more viability retained); conditions: 72 h; top dose: 10 µM
Procedure, shortened: (§1)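 Patient-derived 2D PDAC cells grown out from organoids were seeded robotically at 1,500–3,000 cells/well in 96-well plates and incubated overnight at 37°C, 5% CO2. SelleckChem library compounds were added at seven concentrations (3-fold dilution series, highest 10 µM) for 72 h. CellTiter-Glo luminescence was read after 10 min. Viability was normalised to the DMSO control, and area under the dose-response curve was derived with the GRmetrics R package.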

[2] = tested on: ID211 patient-derived PDAC 2D line (post-FOLFIRINOX); assay: as above; conditions: 72 h; top dose: 10 µM
Procedure, shortened: as §1

For `C[C@]1(O)C[C@@H](c2nc(-c3ccc4ccc(-c5ccccc5)nc4c3)c3c(N)nccn32)C1` [Linsitinib (OSI-906)], the “normalised area under dose-response curve” value (“normalised area” for short) [1] was 0.84 and the “normalised area” value [2] was 0.593.

In the case of `CC[C@@]1(O)C(=O)OCc2c1cc1n(c2=O)Cc2cc3c(CN(C)C)c(O)ccc3nc2-1` [Topotecan HCl], the “normalised area” value [1] is reported as 0.523 and the “normalised area” value [2] is reported as 0.464.

In the case of `O=C(O)Cc1cccc(OCCCN(Cc2cccc(C(F)(F)F)c2Cl)CC(c2ccccc2)c2ccccc2)c1` [GW3965 HCl], the “normalised area” value [1] is reported as 0.923 and the “normalised area” value [2] is reported as 0.825.

With `CCOc1ccc(Cc2cc([C@@H]3O[C@H](CO)[C@@H](O)[C@H](O)[C@H]3O)ccc2Cl)cc1` [Dapagliflozin] the “normalised area” value [1] was 0.943 and the “normalised area” value [2] was 0.913.

For `CCc1cc(Nc2nccc(-c3c(-c4ccc(OC)c(C(=O)Nc5c(F)cccc5F)c4)nc4ccccn34)n2)c(OC)cc1N1CCC(N2CCN(S(C)(=O)=O)CC2)CC1`, the “normalised area” value [1] was 0.94 and the “normalised area” value [2] was 0.829.

With `O=C(O)c1ccc2c(c1)nc(Nc1cccc(Cl)c1)c1ccncc12` [Silmitasertib (CX-4945)] the “normalised area” value [1] was 0.924 and the “normalised area” value [2] was 0.88.

In the case of `CS(=O)(=O)c1ccc(C(=O)Nc2ccc(Cl)c(-c3ccccn3)c2)c(Cl)c1` [Vismodegib (GDC-0449)], the “normalised area” value [1] is reported as 0.926 and the “normalised area” value [2] is reported as 0.84.

For `CNC(=O)c1cc(Oc2ccc(NC(=O)Nc3ccc(Cl)c(C(F)(F)F)c3)cc2)ccn1` [Sorafenib Tosylate], the “normalised area” value [1] was 0.947 and the “normalised area” value [2] was 0.953.

In the case of `C[C@H](NC(=O)CCC(F)(F)F)C(=O)N[C@@H]1C(=O)N(CCO)c2ncccc2-c2ccccc21`, the “normalised area” value [1] is reported as 0.939 and the “normalised area” value [2] is reported as 0.744.

For `COCCOc1ccc2c(c1)ncn2-c1ccc2cccc(N3CCC(N)CC3)c2n1`, the “normalised area” value [1] was 0.974 and the “normalised area” value [2] was 1.03.

With `CONC(=O)c1ccccc1Nc1cc(Nc2cc(C)nn2C(C)C)ncc1Cl` the “normalised area” value [1] was 0.812 and the “normalised area” value [2] was 0.844.

With `Cc1nn(C)c2c1C(c1ccc(C(F)(F)F)cc1)C(C#N)=C(N)O2` (stereo not given) [BQU57] the “normalised area” value [1] was 0.933 and the “normalised area” value [2] was 0.869.

In the case of `N#Cc1c(O)c2c(-c3ccc(-c4ccccc4O)cc3)csc2[nH]c1=O`, the “normalised area” value [1] is reported as 0.977 and the “normalised area” value [2] is reported as 0.782.

`Cc1nc(C(=O)NCC(=O)O)c(O)c2ccc(Oc3ccccc3)cc12` [Roxadustat (FG-4592)] was tested, and the “normalised area” value [1] was 0.951 and the “normalised area” value [2] was 0.842.

With `CS(=O)(=O)c1ccc(-c2cnc(NCc3ccco3)n3cnnc23)cc1` [EED226] the “normalised area” value [1] was 0.955 and the “normalised area” value [2] was 0.846.

For `O=C(CCNC(=O)c1ccc(OC(F)(F)F)cc1)N[C@@H]1CCCc2ccccc21` [ML390], the “normalised area” value [1] was 0.983 and the “normalised area” value [2] was 0.788.

For `CN(C)CCCNC(=O)c1ccc(-c2cc(O)c3ncccc3c2)cc1` [ML324], the “normalised area” value [1] was 0.953 and the “normalised area” value [2] was 0.774.

For `CC(C)C[C@H](NC(=O)CNC(=O)c1cc(Cl)ccc1Cl)B1OC(=O)C(CC(=O)O)(CC(=O)O)O1` [Ixazomib Citrate (MLN9708)], the “normalised area” value [1] was 0.425 and the “normalised area” value [2] was 0.48.

In the case of `COc1cccc2c1C(=O)c1c(O)c3c(c(O)c1C2=O)CC(O)(C(=O)CO)CC3OC1CC(N)C(O)C(C)O1` (stereo not given) [Doxorubicin (Adriamycin) HCl], the “normalised area” value [1] is reported as 0.672 and the “normalised area” value [2] is reported as 0.584.

`NC[C@@](O)(c1ccc(Cl)cc1)c1ccc(-c2cn[nH]c2)cc1` was tested, and the “normalised area” value [1] was 1.03 and the “normalised area” value [2] was 0.981.

`NC(=O)/C(=C/n1cnc(-c2cc(C(F)(F)F)cc(C(F)(F)F)c2)n1)c1cncnc1` [Eltanexor (KPT-8602)] was tested, and the “normalised area” value [1] was 0.574 and the “normalised area” value [2] was 0.579.

In the case of `CNCCN(C)Cc1c[nH]nc1-c1ccc(O[C@H]2C[C@H](OCCC3CCOCC3)C2)cc1`, the “normalised area” value [1] is reported as 0.779 and the “normalised area” value [2] is reported as 0.92.

In the case of `O=S(=O)(N=Cc1c(O)ccc2ccccc12)c1cccs1`, the “normalised area” value [1] is reported as 0.913 and the “normalised area” value [2] is reported as 0.941.

With `Nc1nc(NC2CC2)cc(-c2cccc(Cl)c2Cl)n1` [TH588] the “normalised area” value [1] was 0.914 and the “normalised area” value [2] was 0.918.

In the case of `O=C(O)C(=O)O.[NH-][C@@H]1CCCC[C@H]1[NH-].[Pt+2]` [Oxaliplatin], the “normalised area” value [1] is reported as 0.901 and the “normalised area” value [2] is reported as 0.844.

With `Cc1c(NC(=O)c2cc(C(N)=O)nc3cc(F)ccc23)c(C(F)(F)F)nn1Cc1ccc(C#N)cc1` [BAY-876] the “normalised area” value [1] was 0.826 and the “normalised area” value [2] was 0.718.

In the case of `Cc1cc(Nc2cc(N3CCN(C)CC3)nc(Sc3ccc(NC(=O)C4CC4)cc3)n2)n[nH]1` [Tozasertib (VX-680, MK-0457)], the “normalised area” value [1] is reported as 0.235 and the “normalised area” value [2] is reported as 0.716.

With `Cc1sc2c(c1C)C(c1ccc(Cl)cc1)=N[C@@H](CC(=O)OC(C)(C)C)c1nnc(C)n1-2` [(+)-JQ1] the “normalised area” value [1] was 0.842 and the “normalised area” value [2] was 0.652.

In the case of `Cc1ccc(NC(=O)c2ccc(CN3CC[C@H](N(C)C)C3)c(C(F)(F)F)c2)cc1Nc1nccc(-c2cncnc2)n1` [Bafetinib (INNO-406)], the “normalised area” value [1] is reported as 0.906 and the “normalised area” value [2] is reported as 0.841.

With `c1cn2cc(-c3ccc4cn[nH]c4c3)nc(Nc3ccc(N4CCOCC4)cc3)c2n1` [Entospletinib (GS-9973)] the “normalised area” value [1] was 0.891 and the “normalised area” value [2] was 0.792.
